Assay results reported in a melting point compilation (Tetko et al.; mined from patent text by program, amines drawn as free bases though some values may be those of a salt).

SMILES	melting point [°C]
Cc1ccc(F)c([Si](C)(C)C)c1C(=O)N(C)C(C)(C)C	44 to 47
Nc1ccc(S(=O)(=O)Nc2nnc(CO)s2)cc1	89 to 90
CC(C)OCCCNC(=O)c1n[nH]cc1NC(=O)c1ccccn1	152 to 153
NC(=O)c1cc(F)cc(-c2cccc3cc(Cc4cccc(C(F)(F)F)c4)sc23)c1	165 to 166
C#CC1(O)CCC2C3CCC4=CC(=O)CCC4C3C(=CF)CC21CC (centres undefined)	169 to 180
COc1cccc(/C=C/c2ccc(C(=O)O)cc2)c1	200 to 205
COc1ccc(C(=O)Oc2ccc(C(=O)O)cc2F)cc1C12CC3CC(CC(C3)C1)C2	258 to 260
CC(C)(C)OC(=O)N1CCC(c2nc3cc(-c4ccc(C#N)cc4)ccc3o2)CC1	137 to 141
NC(=O)CCc1ccc(CNC(=O)[C@@H](CCCNC(N)=N[N+](=O)[O-])NC(=O)C(c2ccccc2)c2ccccc2)cc1	139 to 140
Cc1cc(N2N=CCNC2=O)cc(Cl)c1Sc1nccn1C	173 to 174
CC(=O)NC[C@H]1CN(c2ccc(N3CCC4(CC3)COCO4)cc2)C(=O)O1	134 to 138
CN1Cc2c(-c3noc(C4CC4)n3)ncn2-c2cccc(Cl)c2C1=O	165 to 169
Cc1cc(CC(=O)O)[nH]c1C(=O)c1ccccc1	167 to 168
CC(OS(C)(=O)=O)C(C)N1C(=O)c2ccccc2C1=O (centres undefined)	67 to 73
CCOC(=O)c1cn(Cc2ccccc2)nc1OCc1ccc(OCc2nc(-c3ccco3)oc2C)c(Br)c1	158 to 159
COC(=O)CCCc1cc2cc(Cl)ccc2n1S(=O)(=O)c1cccc2ccccc12	94 to 97
O=C1C[N+]([O-])=C(c2ccccc2F)c2cc(Cl)ccc2N1CC(O)CO (centres undefined)	165 to 166
CCOC(=O)C(N=C(c1ccc(Cl)cc1)c1ccc(OC)cc1O)C(=O)OCC	73 to 75
Cc1cc2c3c(cc(C)c2[nH]c1=O)C(C)C(C)(CN=[N+]=[N-])O3 (centres undefined)	189 to 192
CCOC(=O)c1c[nH]c2cc(C)cc(O)c12	152 to 154
COC(=O)Nc1ccc(C(=O)OC)nc1	211 to 213

SMILES	melting point [°C]
Cn1cnc(S(=O)(=O)Nc2cc(C(c3cc(F)ccc3F)S(=O)(=O)c3ccc(Cl)cc3)c(Cl)cn2)c1 (centres undefined)	294 to 296
COc1cccc(C23CCN(C(=O)c4ccccc4)CC2CCC(=O)C3)c1 (centres undefined)	78
COCn1cncc1C[C@H](NC(=O)C(Cc1cccc2ccccc12)Cc1cccc2ccccc12)C(=O)OC	182 to 185
CN(C)C(=S)C1CC(C)(C)Oc2ccc([N+](=O)[O-])cc21 (centres undefined)	158 to 160
COc1c(C)cc(C(=O)c2ccc([N+](=O)[O-])cc2)cc1C	131 to 132
COc1ccc(OC2CN(S(=O)(=O)c3ccc(C)cc3)CCc3ccccc32)cc1 (centres undefined)	84 to 85
Nc1c(C(=O)O)c(=O)[nH]c2cc(Cl)ccc12	> 330
N#Cc1ccsc1-c1[nH]c(=O)c(-c2ccccc2)cc1C(=O)O	255 to 257
CC(C)c1nc(-c2cccc3c2OCO3)cc(-c2ccc(F)cc2)c1C=C(Br)Br	129 to 131
COc1nccnc1C1(O)CN2CCC1CC2 (centres undefined)	130 to 131
CNC(=O)COC(=O)N1CCN(CCc2cc(-c3ccc(Cl)cc3)no2)CC1	130 to 132
CCCCCCCCCCCCNC(=O)c1cc(-c2ccc(OC)cc2)cc(-c2cccc(Cl)c2OCC(=O)O)c1	114 to 117
COC(=O)C=CC=Cc1ccccc1CNC(=O)OC(C)(C)C	96 to 97.5
N#Cc1ccc(N2C(=O)N(CCCO)C3(CCOCC3)C2=O)cc1C(F)(F)F	155 to 156
CCc1cc2c(s1)N(C(=O)NCCN(C)C)CCN=C2c1ccccc1Cl	160 to 162
Fc1ccccc1Cn1nnc2c(NC3CC3)nccc21	245 to 247
Cc1ccc2c(O)ccnc2c1	233 to 235
COC(=O)c1sc([N+](=O)[O-])cc1N=NN(C)C	128 to 130
CCOC(=O)c1ncn2c1CN(C)C(=O)c1c(Br)cccc1-2	214 to 215
CN1CCCC1=Cc1ccc([N+](=O)[O-])cc1[N+](=O)[O-]	188 to 190
CC(C)(C)OC(=O)N1CCC(c2cc(F)ccc2F)(S(=O)(=O)c2ccc(Cl)cc2)CC1	101 to 106

The remaining lines, values ahead:

melting point [°C]	SMILES
113 to 116	O=C(Nc1ccc(-n2nc(C(F)(F)F)cc2C(F)(F)F)cc1)C1CCCO1 (centres undefined)
227 to 230	Cc1nc(N2CCN(CC3CC3(F)F)C2=O)sc1-c1cc[nH]n1 (centres undefined)
175	O=C(O)CCCc1cc2cc(C(F)(F)F)ccc2n1S(=O)(=O)c1ccc2c(c1)CCN2
196 to 198	COc1cc(OC)c2c(=O)[nH]c(-c3cc(C)c(OCCN4CCOCC4)c(C)c3)cc2c1
43 to 46	c1ccc(-c2coc3cc4c(cc23)CCC4)cc1
205 to 208	COc1ccccc1NC(C)C(=O)O (centres undefined)
180 to 182	Cc1oc(-c2ccccc2)nc1COc1ccc(CN(O)C(N)=O)cc1Cl
107	CC12CCC(=O)C=C1CCC(=Cc1cccs1)C2=O (centres undefined)
150 to 153	COCCNC(=O)c1ccc(C(=O)C=C(c2cc(Cl)cc(Cl)c2)C(F)(F)F)cc1
138 to 140	O=C(O)/C=C/c1ccn(C2CCCCCC2)c1
138 to 140	O=C(O)COc1ccc2c(c1)CCc1sc(SCCC(c3ccccc3)c3ccccc3)nc1-2
149 to 150	O=c1cc(C(F)(F)F)ncn1-c1c(Cl)cc(C(F)(F)F)cc1[N+](=O)[O-]
110 to 112	Oc1ccc2cc(Cc3c(Cc4ccccc4)sc4ccccc34)ccc2c1Br
63 to 64	CN(Cc1ccco1)Cn1c(Cl)c(C#N)c(-c2cccc(Cl)c2F)c1-c1ccccc1
177 to 178	Cc1cccc(C)c1OCC(=O)NC(C)C(N)=O (centres undefined)
113 to 116	CC(=O)c1ccc(NS(C)(=O)=O)c(Oc2ccccc2S(C)=O)c1 (centres undefined)
135 to 138	N[C@@H]1C(=O)N(S(=O)(=O)O)[C@H]1C1CCCCC1 (relative stereo)
235 to 237	CC(C)n1nc(-c2c(Cl)nc(N)nc2-c2ccccc2)ccc1=O
186 to 189	CN1CCN(c2ccccc2C=C2CCN(c3ccc(C(F)(F)F)cc3)C2=O)CC1

melting point [°C]	SMILES
230 to 235	COc1ccccc1NC(=O)Nc1nc(Oc2ccc3ccccc3c2)nc(N2Cc3ccccc3CC2C(=O)O)n1 (centres undefined)
160 to 161	O=C(Oc1ccccc1)N1CCC(S(=O)(=O)c2ccccc2F)CC1
260 to 262	C[C@]1(N2C(=O)c3ccc(CNC(=O)c4ccc(Br)cn4)cc3C2=O)CCC(=O)NC1=O
160 to 162	COC1(OC)C2(Cl)C(Cl)=C(Cl)C1(Cl)C(O)C2O (centres undefined)
135 to 137	CC1CCC(N2c3ccccc3Oc3ccccc32)=N1 (centres undefined)
158 to 160	CC(C)Oc1cccc(-n2c(NN)nc3ccccc3c2=O)c1
> 250	Nc1nc2ccccc2c2c1nc(CO)n2CC1(O)CCOCC1
151 to 154	CC(C)(C)CNC=Nc1ccc(-c2c[nH]cn2)cc1Br
176 to 190	CCCCC(CC(=O)Nc1cc(C(N)=O)ccc1C(C)(C)C)c1cc(Cl)c(OCCCOC)cc1OC (centres undefined)
122 to 124	Nc1nccc2occc12
114 to 116	Cn1c(C(F)(F)F)cc(=O)n(-c2ccc(Cl)cc2F)c1=O
121 to 124	CCC1(CCCCN2CCN(c3ccc(F)c(Cl)c3)CC2)C(=O)Nc2ccccc21 (centres undefined)
169 to 170	N=C(N)NCCc1ccc(OCCCC(c2ccccc2)(c2ccccc2)c2ccccc2)cc1
69 to 71	OCC(O)Cc1cc(Cl)c2ccccc2c1OCc1ccccc1 (centres undefined)
100	CCN1CCCC1CNC(=O)Cc1ccc(-c2ccc3c(=O)c(-c4ncc[nH]4)c(N)n(CC)c3n2)cc1F (centres undefined)
146	Oc1cc(Br)cnc1F
119 to 123	CCOC(=O)Nc1ccc2c3c(n(CCCN(C)C)c2c1)CCCCCC3
145 to 146	CC(C)(C)COc1c(-c2ccc(S(C)(=O)=O)cc2)cnn(CC(F)(F)F)c1=O
184 to 186	CC(=O)c1c(C)c(NC(=O)CC(C)(C)C)c(C)c2c1S(=O)(=O)CC2c1ccc(C(C)C)cc1 (centres undefined)

melting point [°C]	SMILES
168	CCN(CC)c1ccc(C=CC(=O)C=Cc2ccc(N(CC)CC)cc2)cc1
273 to 274	O=C1NCc2c1cc1ccc3c(c1c2-c1ccc(Br)cc1)OCO3
110 to 113	CCN(C(C)=O)c1cccc(C(=O)C=CN(C)C)c1
240	N#CC(C#N)=C1Sc2cnn(-c3ccccc3)c(=O)c2S1
154 to 155	CCO/C(=N/O)C1Cc2cc(C(C)=O)c(O)c(Cl)c2O1 (centres undefined)
109 to 110	CCCCNc1n[nH]c(C)c1C(=O)OCC
159 to 161	O=C1NC(=O)C(=Cc2ccc(CCSc3ccccc3)cc2)S1
135	O=C(O)CCc1cccc(CNC(=O)C2Cc3ccccc3N2S(=O)(=O)c2ccc(-c3cccc(C(F)(F)F)c3)cc2)c1 (centres undefined)
123 to 125	COc1cc2ncc(C#N)c(Nc3cccc(CO)c3C)c2cc1OC
93 to 95	C#CCOc1cc(-c2ncnc(C(F)F)c2Cl)c(F)cc1Cl
111 to 112	COc1cc(NCCCCCC(=O)NCC(C)C)c2nccc(C)c2c1
111 to 113	O=[N+]([O-])c1ccc(-c2ccc(C(O)CCl)o2)cc1 (centres undefined)
131	O=Cc1ccc(C2CCCc3cncn32)cc1 (centres undefined)
142 to 143	c1ccc(Nc2c(-c3ccccc3)sc3ccccc23)cc1
140 to 141	CCOC(=O)c1c(C)nc2c3cccc(Cl)c3ccn12
247 to 249	COc1cc2ncnc(NNC(N)=O)c2cc1OC
253 to 255	CS(=O)(=O)Nc1ccc(-c2nc(C(F)(F)F)c[nH]2)cc1
229 to 231	O=C1CCC(N2C(=O)c3cccc(OCc4ccc(CN5CCN(S(=O)(=O)C(F)(F)F)CC5)cc4)c3C2=O)C(=O)N1 (centres undefined)
196 to 197	O=C(NCc1ccccc1F)[C@@H]1CCCN(c2cccc3c2C(=O)N(Cc2ccncc2)C3=O)C1
